The nature of one data set: physchem. The conditions noted are these: organic solvent or mixture, thermodynamic from solid.
Data set [1] in a line: Light resistance evaluation of ink image samples (exposure test). The settings on record: ink image sample with L* closest to 60; Weather-Ometer exposure 36 hours, black panel 50° C., chamber 40° C., RH 70%, 340 nm 0.39 W/m^2; less than 10 = good.
Procedure: The measurement conditions were as follows:
Relative Humidity: 70%, and
Before and after the exposure test, chromaticity (L*, a*, and b*) in the L*a*b* color system of the sample was measured with a reflection densitometer SpectroLino (manufactured by Gretag Macbeth AG). The color difference (ΔE) was calculated from the measured values of color properties by the following expression:
Color difference (ΔE)=[{(a* before the test)−(a* after the test)}^2+{(b* before the test)−(b* after the test)}^2+{(L* before the test)−(L* after the test)}^2]^1/2
When the ΔE after 36 hours was less than 10, the light resistance was evaluated as good.
A further data set can be described thus: Solubility in water. It counts as physicochemical. The source says: The water-insoluble coloring compound represented by Formula (1) of the present invention has a high affinity to an organic solvent. In the present invention, the term “water-insoluble” refers to that the solubility in water is less than 1% as mass percentage.

Molecules are shown by their SMILES.

Source text for physchem: The solubility in each solvent was visually evaluated by the following criteria:
A: completely dissolved (the solubility is excellent),
B: slightly remaining suspended solids (the solubility is good), and
C: not dissolved at all (the solubility is poor).

As for `CCN(CC)c1ccc2c(c1)Oc1cc(N(CC)CC)ccc1C21OC(=O)c2ccccc21` [(1)], the solubility – broadly, the concentration that dissolves in the medium under given conditions – was above 42.9 mg/mL in the data set “physchem” (chloroform), below 42.9 mg/mL in the data set “physchem” (ethyl acetate), above 42.9 mg/mL in the data set “physchem” (methanol) and below 42.9 mg/mL in “physchem” (toluene). Besides, in data set [1], the “ΔE (36 h)” value is recorded as 15.8.

On to `Nc1c(Oc2ccccc2)cc(O)c2c1C(=O)c1ccccc1C2=O` [(2)], for which the solubility in “physchem” (chloroform), in the data set “physchem” (ethyl acetate), in the data set “physchem” (methanol) and in the data set “physchem” (toluene) was below 42.9 mg/mL each time. Also, the “ΔE (36 h)” value in data set [1] came to 12.3.

For the compound `Cc1ccc(/N=N/c2c(O)c(C(=O)O)cc3ccccc23)c(S(=O)(=O)O)c1` [(3)], the solubility in “physchem” (chloroform), in the data set “physchem” (ethyl acetate), in the data set “physchem” (methanol) and in “physchem” (toluene) was below 42.9 mg/mL throughout. The “ΔE (36 h)” value in data set [1] turned out to be 1.5.

For the compound `CC(=O)Nc1c(C)c(N=c2ccc3c(-c4ccccc4S(=O)(=O)O)c4ccc(Nc5c(C)c(NC(C)=O)c(C)c(NC(C)=O)c5C)cc4oc-3c2)c(C)c(NC(C)=O)c1C` [(11)], in data set [1], the “ΔE (36 h)” value was found to be 2.3.

With `CCOC(=O)c1ccccc1C(=O)Nc1c(C)cc(C)c(N=c2ccc3c(-c4ccccc4S(=O)(=O)O)c4ccc(Nc5c(C)cc(C)c(NC(=O)c6ccccc6C(=O)OCC)c5C)cc4oc-3c2)c1C` [(12)], in data set [1], the “ΔE (36 h)” value is 3.5.

In the case of `CC(=O)Nc1c(C)cc(C)c(N=c2ccc3c(-c4ccccc4S(=O)(=O)O)c4ccc(Nc5c(C)c(NC(C)=O)c(C)c(NC(C)=O)c5C)cc4oc-3c2)c1C` [(13)], the “ΔE (36 h)” value in data set [1] turned out to be 3.1.

Take `CCc1ccc(NC(C)=O)c(CC)c1N=c1ccc2c(-c3ccccc3S(=O)(=O)O)c3ccc(Nc4c(CC)ccc(NC(C)=O)c4CC)cc3oc-2c1` [(14)]: in data set [1], the “ΔE (36 h)” value is given as 5.2.

As to `CCc1ccc(NC(C)=O)c(CC)c1Nc1ccc2c(-c3ccccc3S(=O)(=O)O)c3ccc(=Nc4c(C)ccc(NC(C)=O)c4C)cc-3oc2c1` [(15)], the “ΔE (36 h)” value in data set [1] is on record as 5.0.

`CC(=O)Nc1ccc(C)c(N=c2ccc3c(-c4ccccc4S(=O)(=O)O)c4ccc(Nc5c(C(C)C)ccc(NC(C)=O)c5C(C)C)cc4oc-3c2)c1C` [(16)]: the “ΔE (36 h)” value in data set [1] was found to be 5.8.

Turning to `CCOc1cc(C)c(N=c2ccc3c(-c4ccccc4S(=O)(=O)O)c4ccc(Nc5c(C)cc(OCC)c(NC(C)=O)c5C)cc4oc-3c2)c(C)c1NC(C)=O` [(18)], in data set [1], the “ΔE (36 h)” value is 3.9.

With `C=C(C)C(=O)Nc1c(C)cc(C)c(N=c2ccc3c(-c4ccccc4S(=O)(=O)O)c4ccc(Nc5c(C)cc(C)c(NC(=O)C(=C)C)c5C)cc4oc-3c2)c1C` [(21)], the “ΔE (36 h)” value in data set [1] was 7.8.

Consider `Cc1cc(C)c(NC(=O)c2cccnc2)c(C)c1N=c1ccc2c(-c3ccccc3S(=O)(=O)O)c3ccc(Nc4c(C)cc(C)c(NC(=O)c5cccnc5)c4C)cc3oc-2c1` [(22)], for which the “ΔE (36 h)” value in data set [1] came to 5.0.

For the compound `CCCCCCCCCCCCCCCCCC(=O)Nc1c(C)cc(C)c(N=c2ccc3c(-c4ccccc4S(=O)(=O)O)c4ccc(Nc5c(C)cc(C)c(NC(=O)CCCCCCCCCCCCCCCCC)c5C)cc4oc-3c2)c1C` [(23)], the “ΔE (36 h)” value in data set [1] is listed as 3.8.

Turning to `CC(=O)Nc1c(C)cc(C)c(N=c2ccc3c(-c4ccccc4S(=O)(=O)O)c4ccc(Nc5c(C)cc(C)c(NC(C)=O)c5C)cc4oc-3c2)c1C` [Compound (5)], in “Solubility in water”, the solubility in water result is reported as “less than 1 % as mass percentage”. The “ΔE (36 h)” value in data set [1] stood at 3.2.

Turning to `CCC(=O)Nc1c(C)cc(C)c(N=c2ccc3c(-c4ccccc4S(=O)(=O)O)c4ccc(Nc5c(C)cc(C)c(NC(=O)CC)c5C)cc4oc-3c2)c1C` [Compound (6)], the “ΔE (36 h)” value in data set [1] is 3.3.

`CCCC(=O)Nc1c(C)cc(C)c(N=c2ccc3c(-c4ccccc4S(=O)(=O)O)c4ccc(Nc5c(C)cc(C)c(NC(=O)CCC)c5C)cc4oc-3c2)c1C` [Compound (7)]: the “ΔE (36 h)” value in data set [1] turned out to be 3.2.

`Cc1cc(C)c(NC(=O)C(C)C)c(C)c1N=c1ccc2c(-c3ccccc3S(=O)(=O)O)c3ccc(Nc4c(C)cc(C)c(NC(=O)C(C)C)c4C)cc3oc-2c1` [Compound (8)]: the “ΔE (36 h)” value in data set [1] is 2.9.

For the compound `Cc1cc(C)c(NC(=O)c2ccccc2)c(C)c1N=c1ccc2c(-c3ccccc3S(=O)(=O)O)c3ccc(Nc4c(C)cc(C)c(NC(=O)c5ccccc5)c4C)cc3oc-2c1` [Compound (10)], in data set [1], the “ΔE (36 h)” value is 3.8.

The values are drawn from patent publication US20140005417A1, “WATER-INSOLUBLE COLORING COMPOUND, INK, RESIST COMPOSITION FOR COLOR FILTER, AND THERMAL TRANSFER RECORDING SHEET” (CANON KABUSHIKI KAISHA, priority 2011, published 2014).
